Data: patent publication EP0406297B1, “Medical use of neuropeptide Antagonist G” (IMPERIAL CANCER RESEARCH TECHNOLOGY LIMITED, priority 1988, dated 1996)
Residues, ends and D or L forms follow the SMILES beside them.

Experiments:
[1] = test system: small cell lung cancer (SCLC) cell line; assay: growth in vitro of small cell lung cancer cell lines; format: cell-based
Protocol: The ability of antagonists A, D and G to inhibit the growth in vitro of a small cell lung cancer (SCLC) cell line was tested. The cell lines used were • a) H69 and H128 from the ATCC in Maryland USA; • b) H209, H345 and H510A obtained from Dr. A. Gazdar at NCI, NIH, Maryland USA; • c) UCH25 from Dr. P. Beverley, University College, London, England.

SCLC cell lines = assay: calcium mobilisation tests in SCLC cell lines; format: cell-based; settings: 20 µM
Protocol: These responses can be blocked by 20 µM antagonist D in 3 of 3 lines tested (H69, H345, H510A) and by 20 µM antagonist G in H510A.

Swiss 3T3 cells [2] = assay: GRP-induced DNA synthesis ([3H]thymidine incorporation) in quiescent Swiss 3T3 cells; format: cell-based, murine
Swiss 3T3 cells [3] = settings: for IC50: read-out: IC50 for inhibition of mitogenesis induced by bradykinin, 9.4 nM bradykinin, 1 µg/ml insulin
Swiss 3T3 cells [4] = assay: vasopressin-stimulated DNA synthesis in Swiss 3T3 cells; format: cell-based, murine
bombesin receptor = settings: Swiss 3T3 cells; cited from earlier work
vasopressin receptor = settings: Swiss 3T3 cells; cited from earlier work
Swiss 3T3 cells [5] = settings: cited from earlier work
Swiss 3T3 cells [6] = settings: earlier patent application and references 10, 11; cited from earlier work
Swiss 3T3 cells [7] = assay: specificity: DNA synthesis with a variety of other mitogens in Swiss 3T3 cells; format: cell-based, murine

CSCC[C@H](NC(=O)[C@H](CC(C)C)NC(=O)[C@@H](Cc1c[nH]c2ccccc12)NC(=O)[C@H](Cc1ccccc1)N(C)C(=O)[C@@H](Cc1c[nH]c2ccccc12)NC(=O)[C@@H](N)CCCNC(=N)N)C(N)=O [antagonist G, Arg.D-Trp.MePhe.D-Trp-Leu-Met-NH2] (HELM PEPTIDE1{R.[dW].[meF].[dW].L.M.[am]}$$$$V2.0)
inhibition of growth in SCLC cells, compared with antagonist D ([1]; H69, H209, H345 and H510A): equipotent with antagonist D
cell lines in which growth inhibition was found, of cell lines tested ([1]; SCLC cell lines): 4 of 4
transient elevation of intracellular [Ca2+] in response to bradykinin, GRP and vasopressin (SCLC cell lines; H510A): blocked
potency as antagonist of growth induced by GRP, compared with Antagonist D (Swiss 3T3 cells [2]): less potent
potency as antagonist of growth induced by bradykinin, compared with Antagonist D (Swiss 3T3 cells [3]; Swiss 3T3 cells): less potent
potency as antagonist of vasopressin induced cell growth, compared with Antagonist D (Swiss 3T3 cells [4]; Swiss 3T3 cells): as potent as Antagonist D

Arg-Pro-Lys-Pro-Gln-Gln-Phe-Phe-Gly-Leu-Met-NH2 [substance P]
binding of [125I]GRP (bombesin receptor): neither inhibits

CC(C)C[C@H](NC(=O)[C@H](CC(C)C)NC(=O)[C@@H](Cc1c[nH]c2ccccc12)NC(=O)[C@H](Cc1ccccc1)NC(=O)[C@@H](Cc1c[nH]c2ccccc12)NC(=O)[C@H](CCC(N)=O)NC(=O)[C@H](CCC(N)=O)NC(=O)[C@@H]1CCCN1C(=O)[C@H](CCCCN)NC(=O)[C@H]1CCCN1C(=O)[C@H](N)CCCNC(=N)N)C(N)=O [antagonist A, D-Arg-D-Pro-Lys-Pro-Gln-Gln-D-Trp-Phe-D-Trp-Leu-Leu-NH2] (HELM PEPTIDE1{[dR].[dP].K.P.Q.Q.[dW].F.[dW].L.L.[am]}$$$$V2.0)
concentrations effective in inhibiting growth of SCLC ([1]; H69, H82, H128, H417 and UCH25): 50 to 150 µM
cell lines in which growth inhibition was found, of cell lines tested ([1]; SCLC cell lines): 5 of 5
inhibition of [3H]vasopressin binding (vasopressin receptor): inhibit
inhibition of vasopressin-stimulated DNA synthesis (Swiss 3T3 cells [5]): inhibit
IC50 (Swiss 3T3 cells [3]): 90 µM

CC(C)C[C@H](NC(=O)[C@H](CC(C)C)NC(=O)[C@@H](Cc1c[nH]c2ccccc12)NC(=O)[C@H](Cc1ccccc1)NC(=O)[C@@H](Cc1c[nH]c2ccccc12)NC(=O)[C@H](CCC(N)=O)NC(=O)[C@@H](Cc1ccccc1)NC(=O)[C@@H]1CCCN1C(=O)[C@H](CCCCN)NC(=O)[C@@H]1CCCN1C(=O)[C@H](N)CCCNC(=N)N)C(N)=O [antagonist D, D-Arg-Pro-Lys-Pro-D-Phe-Gln-D-Trp-Phe-D-Trp-Leu-Leu-NH2] (HELM PEPTIDE1{[dR].P.K.P.[dF].Q.[dW].F.[dW].L.L.[am]}$$$$V2.0)
potency in inhibiting growth of SCLC relative to Antagonist A [1]: 5-10 fold
cell lines in which growth inhibition was found, of cell lines tested ([1]; SCLC cell lines): 6 of 6
concentration that abolishes cell growth ([1]; SCLC cell lines): 40 to 50 µM
inhibition of [3H]vasopressin binding (vasopressin receptor): inhibit
potency as bombesin antagonist relative to antagonist A (Swiss 3T3 cells [6]): 5-10 fold
SCLC lines in which the Ca2+ responses were blocked, of lines tested (SCLC cell lines): 3 of 3
transient elevation of intracellular [Ca2+] in response to bradykinin, GRP and vasopressin (SCLC cell lines; H69, H345, H510A): blocked
inhibition of mitogenesis stimulated by EGF, PDGF, phorbol dibutyrate, cholera toxin and 8-bromo-cAMP (Swiss 3T3 cells [7]): Neither of them inhibited
effect against various bombesin-like peptides (DNA synthesis) (Swiss 3T3 cells [7]; GRP 3.6 nM, bombesin 1.2 nM, litorin 1.8 nM, 20 µM antagonist D or 1 µM LψLB): effective
inhibition of mitogenesis stimulated by VIP (Swiss 3T3 cells [7]; VIP 3.0 nM, 20 µM antagonist D or 1 µM LψLB): Neither antagonist D nor [Leu^13-ψ(CH2NH)Leu^14]bombesin inhibited
increase in potency against each mitogen relative to antagonist A (Swiss 3T3 cells [7]; mitogens bombesin/GRP, bradykinin, vasopressin): 5-10 fold
inhibition of vasopressin-stimulated DNA synthesis (Swiss 3T3 cells [5]): inhibit
IC50 (Swiss 3T3 cells [3]): 8.3 µM
inhibition of vasopressin-induced DNA synthesis (Swiss 3T3 cells [4]; 20 µM antagonist D, LψLB at concentrations that strongly inhibited GRP-induced mitogenesis (1 µM)): potent inhibitor
